Data set [1] in a line: in vivo. The settings on record: rat, po, 30 mg/kg.
A short description of data set [2]: in vivo. To be noted: rat, po, 30 mg/kg. The source holds these as a separate data set.
A short description of data set [3]: in vitro. To be noted: human, Caco-2.

The molecule `COc1cnn(C)c(=O)c1-c1ccc(C[C@H](NC(=O)c2cc(F)ccc2Cl)C(=O)OCCO)cc1` yielded a bioavailability in data set [1] of 5%. The molecule also displayed a Cmax in data set [2] of 19 µM.
In data set [3], `COc1cnn(C)c(=O)c1-c1ccc(C[C@H](NC(=O)c2c(Cl)cccc2Cl)C(=O)O)cc1` registered a Papp A→B of 0.13 ×10⁻⁶ cm/s. In data set [2], the highest level (Cmax) was 0.1 µM.
`COc1cnn(C)c(=O)c1-c1ccc(C[C@H](NC(=O)c2cc(F)ccc2Cl)C(=O)O)cc1` gave a bioavailability in data set [1] of 0%.

(Values after ChEMBL document CHEMBL1142370, “Synthesis and SAR of pyridazinone-substituted phenylalanine amide alpha4 integrin antagonists” (Bioorg Med Chem Lett, 2008).)
